Experimental findings from patent US20180002400A1, “SHORT PEPTIDE-BASED THERAPEUTIC AGENT AND MEDICINAL COMPOSITION INCLUDING THE SAME FOR INHIBITING ACTIVITIES OF CANCER CELLS” (NATIONAL CHENG KUNG UNIVERSITY, priority 2015, published 2018) are described below.

Holding throughout (assay type): cell-based, human
Data set [1] has as its system breast cancer MB231 cell. In words: Drug resistance (CDDP, 5-FU) induced by euPTX3, MTT assay. The settings on record: MB231 only co-cultured with euPTX3 2.5 μg/mL vs without euPTX3; FIG. 1D. The procedure: (§1) The cell density 1×10^4 cells/well of the breast cancer MB231 cell, the lung cancer A549 cell and the nasopharyngeal cancer HONE1 cell were co-cultured with the short peptides RI37, GI40 and KT44 (10 μg/mL or 225 nM of the short peptide) and the polypeptide euPTX3 (2.5 μg/mL) of Example 1. After 1 week of cultivation, those cancer cells were added with 40 μM of CDDP or 100 μM of 5-FU respectively and cultured for 48 hours. Based on the cell viability of the cells only co-cultured with the polypeptide euPTX3 (2.5 μg/mL) as 100%, the influence of drug resistance of the cancer cells of Example 2 using the short peptides of Example 1 could be determined according to the aforementioned MTT assay.

Data set [2] relates to lung cancer A549 cell. Described as above. The settings on record: A549 only co-cultured with euPTX3 2.5 μg/mL vs without euPTX3; FIG. 2B. The procedure: as §1
Data set [3] has as its system nasopharyngeal cancer HONE1 cell. The data set is described as above. The following applies: HONE1 only co-cultured with euPTX3 2.5 μg/mL vs without euPTX3; FIG. 3B. The procedure: as §1
Data set [4] concerns drug-resistant breast cancer MB231R (MBR) cells. The data set is described as follows: Cancer cell migration (Boyden chamber) induced by euPTX3. The protocol:
[The procedure below names another cell line; the source lists this cell line under the same test.] (§2) The cell density 5×10^4 cells/well of the breast cancer MB231 cell, the lung cancer A549 cell and the nasopharyngeal cancer HONE1 cell were seeded into each upper insert of 24-well plate (containing 8-μm pore insert per well; BD Biosciences) for 19 hours, and each lower well was added with the short peptides RI37, GI40 and KT44 (10 μg/mL or 225 nM of the short peptide) and the polypeptide euPTX3 (2.5 μg/mL) of Example 1, for evaluating the influence of migration of the cancer cell of Example 2 using several short peptides of Example 1.
(§3) The cell density 5×10^4 cells/well of the breast cancer MB231 cell, the lung cancer A549 cell and the nasopharyngeal cancer HONE1 cell were seeded into each upper insert of Boyden chamber for 3 hours of cultivation.
(§4) And then, the medium in each upper insert was replaced by serum-free medium, and the medium in each lower well was added with the short peptides RI37, GI40, KT44 and the polypeptide euPTX3 of Example 1. The cells inside each upper insert were wiped with cotton swabs and removed after 16 hours of cultivation. Remaining cells that had migrated to the bottom of the insert membrane were stained by 4′,6-diamidino-2-phenylindole (DAPI; Invitrogen) and calculated under fluorescence microscopy with 200-fold magnification.

In data set [5] the test system is lung cancer A549 cell. Described as above. The settings on record: A549 only co-cultured with euPTX3 2.5 μg/mL; FIG. 2C left panel. The protocol: as §2, §3, §4
The subject of data set [6] is nasopharyngeal cancer HONE1 cell. Described as above. The settings on record: HONE1 only co-cultured with euPTX3 2.5 μg/mL; FIG. 3C left panel. The protocol: as §2, §3, §4
Data set [7] relates to drug-resistant breast cancer MB231R (MBR) cells. In words: Cancer cell invasion (matrigel-coated insert) induced by euPTX3.
In data set [8] the test system is lung cancer A549 cell. The description is as above. The following applies: A549 only co-cultured with euPTX3 2.5 μg/mL; FIG. 2C right panel. The procedure:
(§5) The cell density 5×10^4 cells/well of the breast cancer MB231 cell, the lung cancer A549 cell and the nasopharyngeal cancer HONE1 cell were seeded into each upper insert of 24-well plate (containing 8-μm pore insert per well; BD Biosciences), the upper insert and the lower well were separated by the polyethelene terephthalate membrane coated with matrigel (purchased from BD Bioscience), and cultured for 3 hours.
(§6) Next, the medium in each upper insert was replaced by serum-free medium, and the medium in each lower well was added with the short peptides RI37, GI40, KT44 and the polypeptide euPTX3 and pPTX3/C of Example 1. The cells inside each upper insert were wiped with cotton swabs and removed after 16 hours of cultivation. Remaining cells that had migrated to the bottom of the insert membrane were stained by 4′, 6-diamidino-2-phenylindole (DAPI; Invitrogen) and calculated under fluorescence microscopy with 200-fold magnification.

Data set [9] relates to nasopharyngeal cancer HONE1 cell. The description is as above. The settings on record: HONE1 only co-cultured with euPTX3 2.5 μg/mL; FIG. 3C right panel. The protocol: as §5, §6

Take “euPTX3: commercially available PTX3 product (R&D system Inc.), recombinant protein purified from mouse myeloma cells (NS0)”: the “drug resistance to CDDP or 5-FU (cell viability)” value in [1], in data set [2] and in data set [3] was “increase drug resistance to CDDP or 5-FU” each time. In addition, the migrated cell numbers result in data set [4] (breast cancer cells only co-cultured with euPTX3 2.5 μg/mL, FIG. 1E, 5B left panels) is “increase migrated cell numbers”; in [5], “increase migrated cell numbers”; in data set [6], “increase migrated cell numbers”. Besides, the invasive cell numbers entry in data set [7] (breast cancer cells only co-cultured with euPTX3 2.5 μg/mL, FIG. 1E, 5B right panels) was “increase invasive cell numbers”; in data set [8], “increase invasive cell numbers”; in data set [9], “increase invasive cell numbers”.

B1: pPTX3/C: recombinant protein (SEQ ID NO:4) expressed and purified from prokaryotic expression system (E. coli); control group (protein)
chain: ETAILFPMRSKKIFGSVHPVRPMRLESFSACIWVKATDVLNKTILFSYGTKRNPYEIQLYLSYQSIVFVVGGEENKLVAEAMVSLGRWTHLCGTWNSEEGLTSLWVNGELAATTVEMATGHIVPEGGILQIGQEKNGCCVGGGFDETLAFSGRLTGFNIWDSVLSNEEIRETGGAESCHIRGNIVGWGVTEIQPHGGAQYVS
modifications: The 180th amino acid to 381th amino acid of Human sapiens PTX3 (pPTX3/C)
notes: control group
For the molecule B1, the “migrated cell numbers induced by the polypeptide euPTX3” value in data set [4] (MB231R (MBR), identical molecular number: euPTX3 2.5 μg/mL, RI37 3.7 μg/mL, GI40 4 μg/mL, pPTX3/C 10 μg/mL, FIG. 5B left panel) is “can inhibit migrated cell numbers”. Moreover, the “invasive cell numbers induced by the polypeptide euPTX3” value in data set [7] (MB231R (MBR), identical molecular number: euPTX3 2.5 μg/mL, RI37 3.7 μg/mL, GI40 4 μg/mL, pPTX3/C 10 μg/mL, FIG. 5B right panel) is “can inhibit invasive cell numbers”.
